According to the NIST ThermoML archive (doi:10.1016/j.jct.2007.11.013):
Numbers after ± are expanded uncertainties.

Assay: xn = mol fraction of the nth substance listed
Details: Liquid, Bellows volumetry

CC(C)C [2-methylpropane] + CCCC
mass density [kg/m3]
Details | 280 K | 320 K | 360 K | 400 K | 440 K
1000 kPa, x2 = 0.2656 | 580.73 ± 0.53 | 530.15 ± 0.51 | – | – | –
1000 kPa, x2 = 0.4913 | 585.41 ± 0.53 | 535.84 ± 0.49 | – | – | –
1000 kPa, x2 = 0.7508 | 589.56 ± 0.54 | 541.44 ± 0.5 | – | – | –
2000 kPa, x2 = 0.2656 | 582.43 ± 0.53 | 532.88 ± 0.51 | 469.97 ± 0.44 | – | –
2000 kPa, x2 = 0.4913 | 586.92 ± 0.53 | 538.41 ± 0.49 | 478.17 ± 0.46 | – | –
2000 kPa, x2 = 0.7508 | 590.9 ± 0.54 | 543.79 ± 0.49 | – | – | –
3000 kPa, x2 = 0.2656 | 583.92 ± 0.53 | 535.39 ± 0.51 | 475.52 ± 0.48 | – | –
3000 kPa, x2 = 0.4913 | 588.36 ± 0.53 | 540.81 ± 0.5 | 483.1 ± 0.46 | 385.11 ± 0.4 | –
3000 kPa, x2 = 0.7508 | 592.32 ± 0.54 | 546.12 ± 0.49 | 490.53 ± 0.45 | 402.2 ± 0.47 | –
5000 kPa, x2 = 0.2656 | 587.09 ± 0.53 | 540.14 ± 0.51 | 484.88 ± 0.5 | 406.75 ± 0.4 | –
5000 kPa, x2 = 0.4913 | 591.12 ± 0.54 | 545.4 ± 0.5 | 491.8 ± 0.46 | 417.26 ± 0.42 | –
5000 kPa, x2 = 0.7508 | 594.99 ± 0.54 | 550.35 ± 0.5 | 498.56 ± 0.45 | 427.6 ± 0.4 | –
10000 kPa, x2 = 0.2656 | 593.89 ± 0.54 | 550.53 ± 0.51 | 502.82 ± 0.49 | 446.63 ± 0.5 | 376.07 ± 0.38
10000 kPa, x2 = 0.4913 | 597.45 ± 0.54 | 555.38 ± 0.51 | 508.78 ± 0.47 | 453.53 ± 0.43 | 384.46 ± 0.38
10000 kPa, x2 = 0.7508 | 601.36 ± 0.54 | 559.85 ± 0.51 | 514.37 ± 0.47 | 460.33 ± 0.42 | 393.12 ± 0.38
20000 kPa, x2 = 0.2656 | 605.71 ± 0.55 | 567.26 ± 0.52 | 527.7 ± 0.49 | 485.47 ± 0.47 | 441.9 ± 0.51
20000 kPa, x2 = 0.4913 | 608.98 ± 0.55 | 571.45 ± 0.52 | 532.51 ± 0.49 | 490.78 ± 0.45 | 447.31 ± 0.42
20000 kPa, x2 = 0.7508 | 612.32 ± 0.55 | 575.19 ± 0.52 | 537.18 ± 0.49 | 495.66 ± 0.45 | 452.37 ± 0.42
30000 kPa, x2 = 0.2656 | 615.41 ± 0.56 | 580.65 ± 0.53 | 545.48 ± 0.5 | 509.52 ± 0.47 | 474.54 ± 0.46
30000 kPa, x2 = 0.4913 | 618.89 ± 0.56 | 584.41 ± 0.53 | 549.98 ± 0.5 | 514.15 ± 0.47 | 479.02 ± 0.44
30000 kPa, x2 = 0.7508 | 621.81 ± 0.56 | 587.77 ± 0.53 | 554.09 ± 0.5 | 518.42 ± 0.47 | 483.18 ± 0.44
40000 kPa, x2 = 0.2656 | 624.41 ± 0.57 | 591.82 ± 0.54 | 559.82 ± 0.51 | 527.48 ± 0.49 | 497.07 ± 0.46
40000 kPa, x2 = 0.4913 | 627.45 ± 0.57 | 595.5 ± 0.54 | 563.9 ± 0.51 | 531.91 ± 0.49 | 501.25 ± 0.46
40000 kPa, x2 = 0.7508 | 630.16 ± 0.57 | 598.52 ± 0.54 | 567.64 ± 0.51 | 535.63 ± 0.49 | 504.89 ± 0.46
50000 kPa, x2 = 0.2656 | 632.48 ± 0.57 | 601.55 ± 0.55 | 571.85 ± 0.52 | 542.19 ± 0.5 | 514.8 ± 0.48
50000 kPa, x2 = 0.4913 | 635.21 ± 0.57 | 605.01 ± 0.55 | 575.77 ± 0.52 | 546.27 ± 0.5 | 518.55 ± 0.47
50000 kPa, x2 = 0.7508 | 637.79 ± 0.58 | 607.82 ± 0.55 | 579.14 ± 0.52 | 549.67 ± 0.5 | 521.88 ± 0.47
60000 kPa, x2 = 0.2656 | 639.66 ± 0.58 | 610.3 ± 0.56 | 582.32 ± 0.53 | 554.58 ± 0.51 | 529.25 ± 0.49
60000 kPa, x2 = 0.4913 | 642.4 ± 0.58 | 613.74 ± 0.56 | 586.24 ± 0.53 | 558.4 ± 0.51 | 532.82 ± 0.49
60000 kPa, x2 = 0.7508 | 644.7 ± 0.58 | 616.38 ± 0.56 | 589.35 ± 0.54 | 561.67 ± 0.51 | 535.99 ± 0.49
70000 kPa, x2 = 0.2656 | 646.31 ± 0.59 | 618.47 ± 0.56 | 591.65 ± 0.54 | 565.35 ± 0.52 | 541.79 ± 0.5
70000 kPa, x2 = 0.4913 | 648.87 ± 0.59 | 621.47 ± 0.56 | 595.42 ± 0.54 | 569.18 ± 0.52 | 545.18 ± 0.5
70000 kPa, x2 = 0.7508 | 650.96 ± 0.59 | 623.97 ± 0.57 | 598.27 ± 0.54 | 572.18 ± 0.52 | 548.23 ± 0.5
80000 kPa, x2 = 0.2656 | 652.53 ± 0.59 | 625.51 ± 0.57 | 599.96 ± 0.55 | 575 ± 0.53 | 552.55 ± 0.51
80000 kPa, x2 = 0.4913 | 654.98 ± 0.59 | 628.69 ± 0.57 | 603.53 ± 0.55 | 578.67 ± 0.53 | 556.07 ± 0.51
80000 kPa, x2 = 0.7508 | 656.95 ± 0.59 | 631.01 ± 0.57 | 606.56 ± 0.55 | 581.7 ± 0.53 | 558.93 ± 0.51
90000 kPa, x2 = 0.2656 | 658.15 ± 0.6 | 632.18 ± 0.57 | 607.66 ± 0.56 | 583.7 ± 0.53 | 562.49 ± 0.52
90000 kPa, x2 = 0.4913 | 660.76 ± 0.6 | 635.21 ± 0.58 | 611.18 ± 0.56 | 587.47 ± 0.54 | 565.64 ± 0.52
90000 kPa, x2 = 0.7508 | 662.63 ± 0.6 | 637.49 ± 0.58 | 613.96 ± 0.56 | 590.11 ± 0.54 | 568.41 ± 0.52
100000 kPa, x2 = 0.2656 | 663.68 ± 0.6 | 638.57 ± 0.58 | 614.79 ± 0.56 | 591.48 ± 0.54 | 571.02 ± 0.53
100000 kPa, x2 = 0.4913 | 666.14 ± 0.6 | 641.34 ± 0.58 | 618.14 ± 0.56 | 595.11 ± 0.54 | 574.54 ± 0.53
100000 kPa, x2 = 0.7508 | 667.99 ± 0.6 | 643.48 ± 0.58 | 620.9 ± 0.56 | 598.02 ± 0.55 | 577.23 ± 0.53
120000 kPa, x2 = 0.2656 | 673.84 ± 0.88 | 649.73 ± 0.59 | 627.56 ± 0.57 | 605.85 ± 0.55 | 586.73 ± 1.3
120000 kPa, x2 = 0.4913 | 675.91 ± 0.88 | 652.68 ± 0.59 | 630.84 ± 0.57 | 609.08 ± 0.56 | 590.02 ± 1.3
120000 kPa, x2 = 0.7508 | 677.69 ± 0.88 | 654.79 ± 0.59 | 633.4 ± 0.58 | 611.77 ± 0.56 | 592.51 ± 1.3
140000 kPa, x2 = 0.2656 | 682.73 ± 0.89 | 660.13 ± 0.6 | 638.86 ± 0.58 | 618.11 ± 0.57 | 600.22 ± 1.3
140000 kPa, x2 = 0.4913 | 685.03 ± 0.89 | 662.76 ± 0.6 | 642.02 ± 0.58 | 621.57 ± 0.57 | 603.26 ± 1.3
140000 kPa, x2 = 0.7508 | 686.69 ± 0.9 | 664.53 ± 0.6 | 644.56 ± 0.59 | 623.93 ± 0.57 | 605.8 ± 1.3
160000 kPa, x2 = 0.2656 | 691.28 ± 0.91 | 669.26 ± 0.62 | 649.01 ± 0.61 | 628.97 ± 0.59 | 612.2 ± 1.4
160000 kPa, x2 = 0.4913 | 693.26 ± 0.91 | 672 ± 0.62 | 652.16 ± 0.61 | 632.55 ± 0.6 | 615.27 ± 1.4
160000 kPa, x2 = 0.7508 | 694.86 ± 0.91 | 673.62 ± 0.62 | 654.38 ± 0.61 | 634.89 ± 0.6 | 617.59 ± 1.4
180000 kPa, x2 = 0.2656 | 699.06 ± 0.92 | 677.76 ± 0.63 | 658.15 ± 0.62 | 639.19 ± 0.6 | 622.95 ± 1.4
180000 kPa, x2 = 0.4913 | 700.72 ± 0.92 | 680.38 ± 0.63 | 661.25 ± 0.62 | 642.45 ± 0.6 | 625.93 ± 1.4
180000 kPa, x2 = 0.7508 | 702.34 ± 0.92 | 681.89 ± 0.63 | 663.57 ± 0.62 | 644.7 ± 0.61 | 628.15 ± 1.4
200000 kPa, x2 = 0.2656 | 706.05 ± 0.93 | 685.47 ± 0.64 | 666.71 ± 0.63 | 648.34 ± 0.62 | 632.67 ± 1.4
200000 kPa, x2 = 0.4913 | 708 ± 0.93 | 687.99 ± 0.64 | 669.76 ± 0.63 | 651.4 ± 0.62 | 635.69 ± 1.4
200000 kPa, x2 = 0.7508 | 709.43 ± 0.93 | 689.51 ± 0.64 | 672.02 ± 0.63 | 653.9 ± 0.62 | 637.8 ± 1.4
